Data from the NIST ThermoML archive (doi:10.1016/j.jct.2019.03.007).

Experiment: molar heat capacity at constant pressure
Conditions: 101.33 kPa, Crystal 2, DSC

O=[N+]([O-])[O-].O=[N+]([O-])[O-].[Ca+2] [calcium nitrate]
Conditions	molar heat capacity at constant pressure [J/K/mol]
140.18 K	107.65
141.18 K	107.79
142.18 K	107.93
143.18 K	108.08
144.18 K	108.26
145.18 K	108.53
146.18 K	108.77
147.18 K	109.04
148.18 K	109.41
149.18 K	109.53
150.18 K	109.66
151.18 K	110.04
152.18 K	110.2
153.18 K	110.55
154.18 K	110.68
155.18 K	111.12
156.18 K	111.45
157.18 K	111.69
158.18 K	111.99
159.18 K	112.21
160.18 K	112.56
161.18 K	112.86
162.18 K	113.24
163.18 K	113.35
164.18 K	113.45
165.18 K	113.94
166.18 K	114.12
167.18 K	114.45
168.18 K	114.73
169.18 K	114.98
170.18 K	115.36
171.18 K	115.66
172.18 K	116.1
173.18 K	116.37
174.18 K	116.66
175.18 K	117.01
176.18 K	117.33
177.18 K	117.64
178.18 K	117.92
179.18 K	118.12
180.18 K	118.62
181.18 K	118.7
182.18 K	119.16
183.18 K	119.36
184.18 K	119.66
185.18 K	119.91
186.18 K	120.23
187.18 K	120.54
188.18 K	120.8
189.18 K	121.2
190.18 K	121.32
191.18 K	121.79
192.18 K	122.02
193.18 K	122.2
194.18 K	122.58
195.18 K	122.7
196.18 K	123.1
197.18 K	123.28
198.18 K	123.48
199.18 K	123.86
200.18 K	123.94
201.18 K	124.39
202.18 K	124.62
203.18 K	124.88
204.18 K	125.24
205.18 K	125.55
206.18 K	125.8
207.18 K	126.11
208.18 K	126.43
209.18 K	126.73
210.18 K	126.95
211.18 K	127.36
212.18 K	127.6
213.18 K	127.82
214.18 K	128.19
215.18 K	128.55
216.18 K	128.82
217.18 K	129.14
218.18 K	129.41
219.18 K	129.69
220.18 K	129.91
221.18 K	130.24
222.18 K	130.55
223.18 K	130.83
224.18 K	131.03
225.18 K	131.19
226.18 K	131.52
227.18 K	131.78
228.18 K	132.06
229.18 K	132.35
230.18 K	132.6
231.18 K	132.91
232.18 K	133.16
233.18 K	133.4
234.18 K	133.66
235.18 K	134.04
236.18 K	134.28
237.18 K	134.56
238.18 K	134.67
239.18 K	134.73
240.18 K	134.88
241.18 K	134.93
242.18 K	135.27
243.18 K	135.75
244.18 K	136.33
245.18 K	136.84
246.18 K	137.21
247.18 K	137.52
248.18 K	137.79
249.18 K	138.02
250.18 K	138.35
251.18 K	138.62
252.18 K	138.99
253.18 K	139.21
254.18 K	139.61
255.18 K	139.92
256.18 K	140.17
257.18 K	140.52
258.18 K	140.74
259.18 K	140.96
260.18 K	141.24
261.18 K	141.46
262.18 K	141.71
263.18 K	141.92
264.18 K	142.15
265.18 K	142.33
266.18 K	142.65
